In brackets after ≈: the same amount, converted by molar mass.
Legend:
Streptococcus pneumoniae = assay: Microtiter dilution MIC, Streptococcus pneumoniae; type: cell-based; conditions: Mueller-Hinton broth, 37° C., 16-24 hours, read-out: Minimal Inhibitory Concentration
Procedure: (§1) The compounds of the present invention and their pharmaceutically acceptable salts are useful as antimicrobial agents. The antimicrobial activity of the representative examples of compounds in accordance with the present invention against five species of gram-negative bacteria, seven species of gram-positive bacteria, four species of yeast, and two species of fungi were determined using the microtiter dilution technique. This method is described by T. B. Conrath, "Handbook of Microtiter Procedures," Dynatech Corp., Cambridge, Mass., USA (1972); and T. L. Gavan et al, "Microdilution Test Procedures," in Manual of Clinical Microbiology, E. H. Lennette, Ed., American Soc. for Microbiol., Washington, D.C., U.S.A. (1980).
(§2) Each agent is suspended in a nonaqueous solvent for several minutes to sterilize the compound or, if the compound is completely soluble in water, the aqueous solution is sterilized by passage through a 0.2-0.45 micrometer membrane filter.
(§3) Each well of a sterile 96-well microdilution tray is filled under aseptic conditions with 0.1 ml of Mueller-Hinton broth (for antibacterial tests), or yeast extract-peptone-dextrose or buffered supplemented yeast nitrogen base (for tests with yeasts or fungi).
(§4) […] of the test compound solution is added to each of the eight wells in the first row of the tray. A microdilutor apparatus is used to simultaneously mix the contents of these wells and to transfer aliquots to each succeeding row of cells to obtain a range of serially diluted solutions. The last row of wells is untreated and serves as a control.
(§5) Each well containing broth and test compound is inoculated with about ten microliters of inoculum of the test microorganism. One well in the last row of wells (which is free of test compound) is not inoculated and is used as a sterility control The trays are sealed and incubated at 37° C. for 16-24 hours (for bacteria) or at 28° C. for 36-48 hours (yeasts or fungi). During incubation, the inoculated medium is shaken at 100-140 rpm to increase contact between the microorganism cells and test compounds.
(§6) After the incubation period, each plate is evaluated by determining the lowest concentration of test compound required to inhibit the growth of the microorganism and recorded as a minimal inhibitory concentration (MIC).

Alcaligenes viscolactis = assay: Microtiter dilution MIC, Alcaligenes viscolactis; type: cell-based; conditions: Mueller-Hinton broth, 37° C., 16-24 hours, read-out: Minimal Inhibitory Concentration
Procedure: as §1, §2, §3, §4, §5, §6

Streptococcus faecalis = assay: Microtiter dilution MIC, Streptococcus faecalis; type: cell-based; conditions: Enterococcus faecalis; Mueller-Hinton broth, 37° C., 16-24 hours; read-out: Minimal Inhibitory Concentration
Procedure: as §1, §2, §3, §4, §5, §6

Rhodotorula aurantiaca = assay: Microtiter dilution MIC, Rhodotorula aurantiaca; type: cell-based; conditions: Buckleyzyma aurantiaca; yeasts or fungi, 28° C., 36-48 hours; read-out: Minimal Inhibitory Concentration
Procedure: as §1, §2, §3, §4, §5, §6

Bacillus cereus = assay: Microtiter dilution MIC, Bacillus cereus; type: cell-based; conditions: Mueller-Hinton broth, 37° C., 16-24 hours, read-out: Minimal Inhibitory Concentration
Procedure: as §1, §2, §3, §4, §5, §6

Branhamella catarrhalis = assay: Microtiter dilution MIC, Branhamella catarrhalis; type: cell-based; conditions: Moraxella catarrhalis; Mueller-Hinton broth, 37° C., 16-24 hours; read-out: Minimal Inhibitory Concentration
Procedure: as §1, §2, §3, §4, §5, §6

Mucor paraciticus = assay: Microtiter dilution MIC, Mucor paraciticus; type: cell-based; conditions: yeasts or fungi, 28° C., 36-48 hours, read-out: Minimal Inhibitory Concentration
Procedure: as §1, §2, §3, §4, §5, §6

Torulopsis albida = assay: Microtiter dilution MIC, Torulopsis albida; type: cell-based; conditions: Naganishia albida; yeasts or fungi, 28° C., 36-48 hours; read-out: Minimal Inhibitory Concentration
Procedure: as §1, §2, §3, §4, §5, §6

P388 leukemia cell line = assay: In vivo antineoplastic activity against transplanted P388 leukemia in mice; conditions: Days 1-9
Procedure: The in vivo antineoplastic activity of representative compounds of the present invention against the transplanted P388 leukemia cell line in mice was determined in accordance with the protocol given in Geran et al, cited above. The mice were infected intraperitoneally on Day 0 and then administered the indicated doses of the test compounds on Days 1-9.

Saccharomyces cerevisiae = assay: Microtiter dilution MIC, Saccharomyces cerevisiae; type: cell-based; conditions: yeasts or fungi, 28° C., 36-48 hours, read-out: Minimal Inhibitory Concentration
Procedure: as §1, §2, §3, §4, §5, §6

Staphylococcus aureus = assay: Microtiter dilution MIC, Staphylococcus aureus; type: cell-based; conditions: Mueller-Hinton broth, 37° C., 16-24 hours, read-out: Minimal Inhibitory Concentration
Procedure: as §1, §2, §3, §4, §5, §6

Rhizopus japonicus = assay: Microtiter dilution MIC, Rhizopus japonicus; type: cell-based; conditions: yeasts or fungi, 28° C., 36-48 hours, read-out: Minimal Inhibitory Concentration
Procedure: as §1, §2, §3, §4, §5, §6

Pseudomonas aeruginosa = assay: Microtiter dilution MIC, Pseudomonas aeruginosa; type: cell-based; conditions: Mueller-Hinton broth, 37° C., 16-24 hours, read-out: Minimal Inhibitory Concentration
Procedure: as §1, §2, §3, §4, §5, §6

Streptococcus pyogenes = assay: Microtiter dilution MIC, Streptococcus pyogenes; type: cell-based; conditions: Mueller-Hinton broth, 37° C., 16-24 hours, read-out: Minimal Inhibitory Concentration
Procedure: as §1, §2, §3, §4, §5, §6

Bacillus megaterium = assay: Microtiter dilution MIC, Bacillus megaterium; type: cell-based; conditions: Priestia megaterium; Mueller-Hinton broth, 37° C., 16-24 hours; read-out: Minimal Inhibitory Concentration
Procedure: as §1, §2, §3, §4, §5, §6

Salmonella typhimurium = assay: Microtiter dilution MIC, Salmonella typhimurium; type: cell-based; conditions: Salmonella enterica, Mueller-Hinton broth, 37° C., 16-24 hours, read-out: Minimal Inhibitory Concentration
Procedure: as §1, §2, §3, §4, §5, §6

[1] = test system: L1210 murine leukemia cell line; assay: Cytotoxic activity against L1210 murine leukemia in vitro; type: cell-based; conditions: Mus musculus, 50% inhibition of growth, duplicate tests
Procedure: The antineoplastic activities of representative compounds of the present invention against the L1210 murine leukemia cell line in vitro were determined using the methods detailed by R. I. Geran et al, "Protocols for Screening Chemical Agents and Natural Products Against Animal Tumors and Other Biological Systems," 3rd Edition, Cancer Chemotherapy Reports, Part 3, Vol. 3, pages 1-87 (1972) which is incorporated herein by reference.
The IC50 values are the concentration of compound required to produce 50% inhibition of growth of the cell line.

[2] = test system: Escherichia coli (PD-04863); assay: Microtiter dilution MIC, Escherichia coli (PD-04863); type: cell-based; conditions: Mueller-Hinton broth, 37° C., 16-24 hours, read-out: Minimal Inhibitory Concentration
Procedure: as §1, §2, §3, §4, §5, §6

[3] = test system: Schizosaccharomyces pombe; assay: Microtiter dilution MIC, Schizosaccharomyces pombe; type: cell-based; conditions: yeasts or fungi, 28° C., 36-48 hours, read-out: Minimal Inhibitory Concentration
Procedure: as §1, §2, §3, §4, §5, §6

Micrococcus luteus = assay: Microtiter dilution MIC, Micrococcus luteus; type: cell-based; conditions: Mueller-Hinton broth, 37° C., 16-24 hours, read-out: Minimal Inhibitory Concentration
Procedure: as §1, §2, §3, §4, §5, §6

SMILES: Cc1c(O)c(C=O)c2nc3c(O)ccc(C(=O)NCCCN(C)C)c3nc2c1O [Example 18, N-[3-(dimethylamino)propyl]-6-formyl-4,7,9-trihydroxy-8-methyl-1-phenazinecarboxamide]
- MIC (Streptococcus pneumoniae): 37 µg/mL (≈ 92.9 µM)
- MIC (Alcaligenes viscolactis): 12.3 µg/mL (≈ 30.9 µM)
- MIC (Streptococcus faecalis): 37 µg/mL (≈ 92.9 µM)
- MIC (Rhodotorula aurantiaca): 37 µg/mL (≈ 92.9 µM)
- MIC (Bacillus cereus): 12.3 µg/mL (≈ 30.9 µM)
- MIC (Branhamella catarrhalis): 12.3 µg/mL (≈ 30.9 µM)
- MIC (Mucor paraciticus): 37 µg/mL (≈ 92.9 µM)
- MIC (Torulopsis albida): 37 µg/mL (≈ 92.9 µM)
- % T/C (P388 leukemia cell line; 25 mg/kg/injection): 106%
- % T/C (P388 leukemia cell line; 50 mg/kg/injection): 123%
- % T/C (P388 leukemia cell line; 100 mg/kg/injection): 132%
- MIC (Saccharomyces cerevisiae): 111 µg/mL (≈ 279 µM)
- MIC (Staphylococcus aureus): 37 µg/mL (≈ 92.9 µM)
- MIC (Rhizopus japonicus): 37 µg/mL (≈ 92.9 µM)
- MIC (Pseudomonas aeruginosa): > 1000 µg/mL
- MIC (Streptococcus pyogenes): 37 µg/mL (≈ 92.9 µM)
- MIC (Bacillus megaterium): 37 µg/mL (≈ 92.9 µM)
- MIC (Salmonella typhimurium): 111 µg/mL (≈ 279 µM)
- IC50 [1]: 0.24 µg/mL (≈ 0.602 µM)
- MIC [2]: 37 µg/mL (≈ 92.9 µM)
- MIC [3]: 37 µg/mL (≈ 92.9 µM)
- MIC (Micrococcus luteus): 12.3 µg/mL (≈ 30.9 µM)

Reference: patent US4738929A, “Purified culture of streptomyces galanosa” (Warner-Lambert Company, priority 1986, dated 1988)
